Assay results: patent US10344060B2 (priority 2013, dated 2019)
Where two headings read alike, the source gives them in different places.

Experiments:
Assay in all cases: cell-based
Type in all cases: cell-based
hNav1.6 = hNav1.6 (Homo sapiens, UniProt Q9UQD0); conditions: Table 15; for Nav1.6/Nav1.7: ratio of PX tonic IC50 values; for IC50: read-out: PX hNav1.6 Tonic IC50
hNav1.7 = hNav1.7 (Homo sapiens, UniProt Q15858); conditions: read-out: PX hNav1.7 Tonic IC50
hNav1.4 = hNav1.4 (Homo sapiens, UniProt P35499); conditions: Table 12; for IC50: PatchXpress, tonic block, read-out: PX hNav1.4 Tonic IC50; for Nav1.4/Nav1.7: ratio of PX tonic IC50 values
Sequence of hNav1.4 (P35499 whole entry): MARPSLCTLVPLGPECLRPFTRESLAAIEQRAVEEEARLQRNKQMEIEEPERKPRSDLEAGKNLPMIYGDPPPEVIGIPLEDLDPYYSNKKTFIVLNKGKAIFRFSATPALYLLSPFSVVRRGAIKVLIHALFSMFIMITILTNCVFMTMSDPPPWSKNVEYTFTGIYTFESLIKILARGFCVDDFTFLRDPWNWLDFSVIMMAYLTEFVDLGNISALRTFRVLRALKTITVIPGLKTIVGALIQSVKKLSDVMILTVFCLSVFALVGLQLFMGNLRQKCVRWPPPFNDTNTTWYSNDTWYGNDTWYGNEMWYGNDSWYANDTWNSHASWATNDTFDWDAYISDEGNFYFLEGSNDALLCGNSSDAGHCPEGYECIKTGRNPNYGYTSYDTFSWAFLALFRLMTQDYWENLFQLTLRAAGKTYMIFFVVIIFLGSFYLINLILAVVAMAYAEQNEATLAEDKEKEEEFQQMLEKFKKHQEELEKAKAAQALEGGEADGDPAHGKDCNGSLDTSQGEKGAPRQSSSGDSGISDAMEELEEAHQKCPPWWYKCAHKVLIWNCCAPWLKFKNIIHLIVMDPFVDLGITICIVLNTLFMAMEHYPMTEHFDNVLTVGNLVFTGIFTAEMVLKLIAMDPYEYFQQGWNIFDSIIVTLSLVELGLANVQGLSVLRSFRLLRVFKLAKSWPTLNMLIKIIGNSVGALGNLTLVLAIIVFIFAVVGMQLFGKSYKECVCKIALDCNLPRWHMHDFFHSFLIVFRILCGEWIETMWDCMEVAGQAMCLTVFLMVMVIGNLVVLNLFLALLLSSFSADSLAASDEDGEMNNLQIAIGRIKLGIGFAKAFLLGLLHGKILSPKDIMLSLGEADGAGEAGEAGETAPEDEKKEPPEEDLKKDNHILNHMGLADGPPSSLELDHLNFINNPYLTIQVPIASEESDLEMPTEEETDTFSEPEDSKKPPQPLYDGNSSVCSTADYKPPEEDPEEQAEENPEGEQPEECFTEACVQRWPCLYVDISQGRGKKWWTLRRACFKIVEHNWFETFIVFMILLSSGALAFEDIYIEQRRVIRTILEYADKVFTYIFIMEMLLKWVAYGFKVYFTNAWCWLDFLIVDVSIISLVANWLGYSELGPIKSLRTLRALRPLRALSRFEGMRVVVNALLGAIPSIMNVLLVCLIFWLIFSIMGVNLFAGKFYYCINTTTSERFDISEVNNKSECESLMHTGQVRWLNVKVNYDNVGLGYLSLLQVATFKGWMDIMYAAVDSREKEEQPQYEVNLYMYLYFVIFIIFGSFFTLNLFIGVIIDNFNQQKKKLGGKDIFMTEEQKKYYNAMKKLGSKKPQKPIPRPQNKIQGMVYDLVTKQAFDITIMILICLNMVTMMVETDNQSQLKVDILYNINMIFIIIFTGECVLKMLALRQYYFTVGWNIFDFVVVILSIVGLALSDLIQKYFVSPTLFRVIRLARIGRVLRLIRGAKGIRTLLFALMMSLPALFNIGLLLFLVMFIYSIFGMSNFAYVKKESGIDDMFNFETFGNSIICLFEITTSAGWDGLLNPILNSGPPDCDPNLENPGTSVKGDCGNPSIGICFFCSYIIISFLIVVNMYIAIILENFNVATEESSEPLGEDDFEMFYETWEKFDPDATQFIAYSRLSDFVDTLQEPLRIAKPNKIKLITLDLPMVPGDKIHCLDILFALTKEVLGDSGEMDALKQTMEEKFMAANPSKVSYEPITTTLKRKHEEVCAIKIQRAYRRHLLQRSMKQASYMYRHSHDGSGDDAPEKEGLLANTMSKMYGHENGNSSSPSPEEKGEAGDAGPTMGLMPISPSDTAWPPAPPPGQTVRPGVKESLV

[1] = Table 12, PatchXpress, tonic block

Sequence of hNav1.7 (Q15858 whole entry): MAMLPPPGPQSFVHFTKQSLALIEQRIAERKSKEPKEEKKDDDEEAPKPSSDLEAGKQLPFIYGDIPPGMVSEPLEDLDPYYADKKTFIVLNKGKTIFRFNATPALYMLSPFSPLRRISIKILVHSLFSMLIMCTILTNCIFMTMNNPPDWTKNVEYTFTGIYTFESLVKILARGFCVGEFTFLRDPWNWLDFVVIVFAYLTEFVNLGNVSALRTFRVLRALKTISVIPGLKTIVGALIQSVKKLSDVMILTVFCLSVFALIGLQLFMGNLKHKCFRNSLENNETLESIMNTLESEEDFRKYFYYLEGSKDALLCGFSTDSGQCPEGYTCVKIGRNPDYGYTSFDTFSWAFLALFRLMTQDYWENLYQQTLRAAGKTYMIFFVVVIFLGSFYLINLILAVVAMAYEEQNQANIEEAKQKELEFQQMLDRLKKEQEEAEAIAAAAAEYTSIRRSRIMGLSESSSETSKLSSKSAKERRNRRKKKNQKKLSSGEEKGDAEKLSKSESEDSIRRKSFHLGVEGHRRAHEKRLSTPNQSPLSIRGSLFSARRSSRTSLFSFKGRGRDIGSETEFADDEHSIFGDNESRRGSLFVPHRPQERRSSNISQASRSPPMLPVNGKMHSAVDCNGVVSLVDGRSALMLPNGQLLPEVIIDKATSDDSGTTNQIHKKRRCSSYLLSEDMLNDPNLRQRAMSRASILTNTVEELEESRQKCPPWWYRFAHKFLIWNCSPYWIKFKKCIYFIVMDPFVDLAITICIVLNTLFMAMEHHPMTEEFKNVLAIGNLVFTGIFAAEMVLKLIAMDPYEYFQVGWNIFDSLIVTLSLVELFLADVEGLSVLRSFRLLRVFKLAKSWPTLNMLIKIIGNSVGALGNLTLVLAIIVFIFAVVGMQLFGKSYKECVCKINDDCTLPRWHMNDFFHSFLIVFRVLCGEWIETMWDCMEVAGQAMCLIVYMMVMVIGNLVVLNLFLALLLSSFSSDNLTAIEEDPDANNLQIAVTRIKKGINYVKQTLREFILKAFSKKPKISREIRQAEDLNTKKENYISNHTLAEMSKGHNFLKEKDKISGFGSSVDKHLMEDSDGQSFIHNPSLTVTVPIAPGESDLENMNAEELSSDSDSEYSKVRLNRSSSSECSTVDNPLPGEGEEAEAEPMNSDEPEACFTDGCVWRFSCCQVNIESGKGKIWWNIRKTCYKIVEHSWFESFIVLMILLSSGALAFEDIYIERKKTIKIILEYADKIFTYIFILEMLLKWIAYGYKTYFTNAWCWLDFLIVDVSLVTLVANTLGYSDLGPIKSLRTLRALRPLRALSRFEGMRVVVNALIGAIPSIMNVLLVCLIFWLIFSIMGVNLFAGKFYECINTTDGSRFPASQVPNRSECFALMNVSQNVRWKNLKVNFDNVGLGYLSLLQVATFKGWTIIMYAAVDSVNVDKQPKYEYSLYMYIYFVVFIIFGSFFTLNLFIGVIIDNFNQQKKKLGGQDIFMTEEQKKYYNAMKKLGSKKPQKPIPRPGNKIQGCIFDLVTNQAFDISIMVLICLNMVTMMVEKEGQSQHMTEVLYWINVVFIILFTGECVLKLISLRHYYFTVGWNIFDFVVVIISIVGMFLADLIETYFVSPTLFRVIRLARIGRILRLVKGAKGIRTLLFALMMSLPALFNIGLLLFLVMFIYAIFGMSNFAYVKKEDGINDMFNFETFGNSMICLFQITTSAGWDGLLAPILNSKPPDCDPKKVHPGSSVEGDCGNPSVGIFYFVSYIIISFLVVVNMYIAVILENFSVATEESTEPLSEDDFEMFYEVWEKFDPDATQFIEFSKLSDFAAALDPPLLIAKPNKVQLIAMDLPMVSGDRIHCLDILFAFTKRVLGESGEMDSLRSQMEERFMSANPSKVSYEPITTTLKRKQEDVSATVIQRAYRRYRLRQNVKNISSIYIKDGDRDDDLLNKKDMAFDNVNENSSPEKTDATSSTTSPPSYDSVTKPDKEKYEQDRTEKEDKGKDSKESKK

SMILES: C#CC[C@H](N)C(=O)N[C@@H](Cc1ccc(O)cc1)C(=O)N[C@H]1CSSC[C@@H]2NC(=O)[C@@H]3CSSC[C@@H](C(=O)N[C@@H](CCCNC(=N)N)C(=O)N[C@@H](CCCCN)C(=O)N[C@@H](CCC(=O)O)C(=O)N[C@H](C(N)=O)[C@@H](C)CC)NC(=O)[C@H](Cc4c[nH]c5ccccc45)NC(=O)[C@H](CC(C)C)NC(=O)[C@H](CCCCN)NC(=O)[C@H](CSSC[C@H](NC(=O)[C@H]([C@@H](C)O)NC(=O)[C@H](Cc4c[nH]c5ccccc45)NC(=O)[C@H](CCCC)NC(=O)[C@H](Cc4c[nH]c5ccccc45)NC(=O)[C@H](CCCCN)NC(=O)[C@H](CCC(N)=O)NC1=O)C(=O)N[C@@H](CC(=O)O)C(=O)N[C@@H](CO)C(=O)N[C@@H](CCCCN)C(=O)N[C@@H](CCCNC(=N)N)C(=O)N[C@@H](C)C(=O)N3)NC(=O)[C@H](CCCNC(=N)N)NC(=O)[C@H](CC(C)C)NC(=O)CNC(=O)[C@H](CCCCN)NC2=O [compound 718]
- Nav1.6/Nav1.7 (hNav1.6): 104
- IC50 (hNav1.6): 148 nM
- IC50 (hNav1.7; [1]): 1.42 nM
- IC50 (hNav1.4): 33.9 nM
- Nav1.4/Nav1.7 (hNav1.4): 24

SMILES: C#CC[C@@H]1NC(=O)[C@@H]2CSSC[C@H](NC(=O)[C@H](Cc3ccc(O)cc3)NC(=O)[C@@H](N)CC#N)C(=O)N[C@@H](CCC(N)=O)C(=O)N[C@@H](CCCCN)C(=O)N[C@@H](Cc3c[nH]c4ccccc34)C(=O)N[C@@H](CCCC)C(=O)N[C@@H](Cc3c[nH]c4ccccc34)C(=O)N[C@@H]([C@@H](C)O)C(=O)N[C@H]3CSSC[C@H](NC(=O)[C@H](CCCNC(=N)N)NC(=O)[C@H](CC(C)C)NC(=O)CNC1=O)C(=O)N[C@@H](CCCCN)C(=O)N[C@@H](CC(C)C)C(=O)N[C@@H](Cc1c[nH]c4ccccc14)C(=O)N[C@H](C(=O)N[C@@H](CCCNC(=N)N)C(=O)N[C@@H](CCCCN)C(=O)N[C@@H](CCC(=O)O)C(=O)N[C@H](C(N)=O)[C@@H](C)CC)CSSC[C@H](NC(=O)[C@H](C)NC(=O)[C@H](CCCNC(=N)N)NC(=O)[C@H](CCC(=O)O)NC(=O)[C@H](CO)NC(=O)[C@H](CC(=O)O)NC3=O)C(=O)N2 [compound 732]
- Nav1.6/Nav1.7 (hNav1.6): 1972
- IC50 (hNav1.6): 1720 nM
- IC50 (hNav1.7; [1]): 0.87 nM
- IC50 (hNav1.4): 253 nM
- Nav1.4/Nav1.7 (hNav1.4): 291

SMILES: C#CC[C@@H]1NC(=O)[C@@H]2CSSC[C@H](NC(=O)[C@H](Cc3ccc(O)cc3)NC(=O)[C@@H](N)CC#N)C(=O)N[C@@H](CCC(N)=O)C(=O)N[C@@H](CCCCN)C(=O)N[C@@H](Cc3c[nH]c4ccccc34)C(=O)N[C@@H](CCCC)C(=O)N[C@@H](Cc3c[nH]c4ccccc34)C(=O)N[C@@H]([C@@H](C)O)C(=O)N[C@H]3CSSC[C@H](NC(=O)[C@H](CCCNC(=N)N)NC(=O)[C@H](CC(C)C)NC(=O)CNC1=O)C(=O)N[C@@H](CCCCN)C(=O)N[C@@H](CC(C)C)C(=O)N[C@@H](Cc1c[nH]c4ccccc14)C(=O)N[C@H](C(=O)N[C@@H](CCCNC(=N)N)C(=O)N[C@@H](CCCCN)C(=O)N[C@@H](CCC(=O)O)C(=O)N[C@H](C(N)=O)[C@@H](C)CC)CSSC[C@H](NC(=O)[C@H](CCC(=O)O)NC(=O)[C@H](CCCNC(=N)N)NC(=O)[C@H](CCCCN)NC(=O)[C@H](CO)NC(=O)[C@H](CC(=O)O)NC3=O)C(=O)N2 [compound 733]
- Nav1.6/Nav1.7 (hNav1.6): 147
- IC50 (hNav1.6): 175 nM
- IC50 (hNav1.7; [1]): 1.19 nM
- IC50 (hNav1.4): 130 nM
- Nav1.4/Nav1.7 (hNav1.4): 109

SMILES: C#CC[C@H](N)C(=O)N[C@@H](Cc1ccc(O)cc1)C(=O)N[C@H]1CSSC[C@@H]2NC(=O)[C@@H]3CSSC[C@@H](C(=O)N[C@@H](CCCNC(=N)N)C(=O)N[C@@H](CCCCN)C(=O)N[C@@H](CCC(=O)O)C(=O)N[C@H](C(N)=O)[C@@H](C)CC)NC(=O)[C@H](Cc4c[nH]c5ccccc45)NC(=O)[C@H](CC(C)C)NC(=O)[C@H](CCCCN)NC(=O)[C@H](CSSC[C@H](NC(=O)[C@H]([C@@H](C)O)NC(=O)[C@H](Cc4c[nH]c5ccccc45)NC(=O)[C@H](CCCC)NC(=O)[C@H](CCc4ccccc4)NC(=O)[C@H](CCCCN)NC(=O)[C@H](CCC(N)=O)NC1=O)C(=O)N[C@@H](CC(=O)O)C(=O)N[C@@H](CO)C(=O)N[C@@H](CCCCN)C(=O)N[C@@H](CCCNC(=N)N)C(=O)N[C@@H](C)C(=O)N3)NC(=O)[C@H](CCCNC(=N)N)NC(=O)[C@H](CC(C)C)NC(=O)CNC(=O)[C@H](CCC(=O)O)NC2=O [compound 844]
- Nav1.6/Nav1.7 (hNav1.6): 1666
- IC50 (hNav1.7; [1]): 0.599 nM
- IC50 (hNav1.7; Table 15): 0.599 nM
- IC50 (hNav1.4): 258 nM
- Nav1.4/Nav1.7 (hNav1.4): 431

SMILES: C#CC[C@H](NC(=O)[C@@H](N)CCC(=O)O)C(=O)N[C@H]1CSSC[C@@H]2NC(=O)[C@@H]3CSSC[C@@H](C(=O)N[C@@H](CCCNC(=N)N)C(=O)N[C@@H](CCCCN)C(=O)N[C@@H](CCC(=O)O)C(=O)N[C@H](C(N)=O)[C@@H](C)CC)NC(=O)[C@H](Cc4c[nH]c5ccccc45)NC(=O)[C@H](CC(C)C)NC(=O)[C@H](CCCCN)NC(=O)[C@H](CSSC[C@H](NC(=O)[C@H]([C@@H](C)O)NC(=O)[C@H](Cc4c[nH]c5ccccc45)NC(=O)[C@H](CCCC)NC(=O)[C@H](Cc4c[nH]c5ccccc45)NC(=O)[C@H](CCCCN)NC(=O)[C@H](CCC(N)=O)NC1=O)C(=O)N[C@@H](CC(=O)O)C(=O)N[C@@H](CCC(=O)O)C(=O)N[C@@H](CCC(=O)O)C(=O)N[C@@H](CCCNC(=N)N)C(=O)N[C@@H](C)C(=O)N3)NC(=O)[C@H](CCCNC(=N)N)NC(=O)[C@H](CC(C)C)NC(=O)CNC(=O)[C@H](CCC(=O)O)NC2=O [compound 748]
- Nav1.6/Nav1.7 (hNav1.6): 410
- IC50 (hNav1.6): 2730 nM
- IC50 (hNav1.7; [1]): 6.66 nM
- IC50 (hNav1.4): 2150 nM
- Nav1.4/Nav1.7 (hNav1.4): 323

SMILES: C#CC[C@H](N)C(=O)N[C@@H](CCC(=O)O)C(=O)N[C@H]1CSSC[C@@H]2NC(=O)[C@@H]3CSSC[C@@H](C(=O)N[C@@H](CCCNC(=N)N)C(=O)N[C@@H](CCCCN)C(=O)N[C@@H](CCC(=O)O)C(=O)N[C@H](C(N)=O)[C@@H](C)CC)NC(=O)[C@H](Cc4c[nH]c5ccccc45)NC(=O)[C@H](CC(C)C)NC(=O)[C@H](CCCCN)NC(=O)[C@H](CSSC[C@H](NC(=O)[C@H]([C@@H](C)O)NC(=O)[C@H](Cc4c[nH]c5ccccc45)NC(=O)[C@H](CCCC)NC(=O)[C@H](Cc4c[nH]c5ccccc45)NC(=O)[C@H](CCCCN)NC(=O)[C@H](CCC(N)=O)NC1=O)C(=O)N[C@@H](CC(=O)O)C(=O)N[C@@H](CO)C(=O)N[C@@H](CCC(=O)O)C(=O)N[C@@H](CCCNC(=N)N)C(=O)N[C@@H](C)C(=O)N3)NC(=O)[C@H](CCCNC(=N)N)NC(=O)[C@H](CC(C)C)NC(=O)CNC(=O)[C@H](CCC(=O)O)NC2=O [compound 742]
- Nav1.6/Nav1.7 (hNav1.6): 333
- IC50 (hNav1.6): 1380 nM
- IC50 (hNav1.7; [1]): 4.14 nM
- IC50 (hNav1.4): 1720 nM
- Nav1.4/Nav1.7 (hNav1.4): 416

SMILES: C#CC[C@H](NC(=O)[C@@H](N)CCC(=O)O)C(=O)N[C@@H](Cc1ccc(O)cc1)C(=O)N[C@H]1CSSC[C@@H]2NC(=O)[C@@H]3CSSC[C@@H](C(=O)N[C@@H](CCCNC(=N)N)C(=O)N[C@@H](CCCCN)C(=O)N[C@@H](CCC(=O)O)C(=O)N[C@H](C(N)=O)[C@@H](C)CC)NC(=O)[C@H](Cc4c[nH]c5ccccc45)NC(=O)[C@H](CC(C)C)NC(=O)[C@H](CCCCN)NC(=O)[C@H](CSSC[C@H](NC(=O)[C@H]([C@@H](C)O)NC(=O)[C@H](Cc4c[nH]c5ccccc45)NC(=O)[C@H](CCCC)NC(=O)[C@H](Cc4c[nH]c5ccccc45)NC(=O)[C@H](CCCCN)NC(=O)[C@H](CCC(N)=O)NC1=O)C(=O)N[C@@H](CC(=O)O)C(=O)N[C@@H](CCC(=O)O)C(=O)N[C@@H](CCCCN)C(=O)N[C@@H](CCCNC(=N)N)C(=O)N[C@@H](C)C(=O)N3)NC(=O)[C@H](CCCNC(=N)N)NC(=O)[C@H](CC(C)C)NC(=O)CNC(=O)[C@H](CCC(=O)O)NC2=O [compound 734]
- Nav1.6/Nav1.7 (hNav1.6): 1233
- IC50 (hNav1.6): 2870 nM
- IC50 (hNav1.7; [1]): 2.33 nM
- IC50 (hNav1.4): 1050 nM
- Nav1.4/Nav1.7 (hNav1.4): 452

SMILES: C#CC[C@H](NC(=O)[C@@H](N)CCC(=O)O)C(=O)N[C@H]1CSSC[C@@H]2NC(=O)[C@@H]3CSSC[C@@H](C(=O)N[C@@H](CCCNC(=N)N)C(=O)N[C@@H](CCCCN)C(=O)N[C@@H](CCC(=O)O)C(=O)N[C@H](C(N)=O)[C@@H](C)CC)NC(=O)[C@H](Cc4c[nH]c5ccccc45)NC(=O)[C@H](CC(C)C)NC(=O)[C@H](CCCCN)NC(=O)[C@H](CSSC[C@H](NC(=O)[C@H]([C@@H](C)O)NC(=O)[C@H](Cc4c[nH]c5ccccc45)NC(=O)[C@H](CCCC)NC(=O)[C@H](Cc4c[nH]c5ccccc45)NC(=O)[C@H](CCCCN)NC(=O)[C@H](CCC(N)=O)NC1=O)C(=O)N[C@@H](CC(=O)O)C(=O)N[C@@H](CCC(=O)O)C(=O)N[C@@H](CCCCN)C(=O)N[C@@H](CCCNC(=N)N)C(=O)N[C@@H](CCC(=O)O)C(=O)N3)NC(=O)[C@H](CCCNC(=N)N)NC(=O)[C@H](CC(C)C)NC(=O)CNC(=O)[C@H](CCC(=O)O)NC2=O [compound 750]
- Nav1.6/Nav1.7 (hNav1.6): >3442
- IC50 (hNav1.6): > 10000 nM
- IC50 (hNav1.7; [1]): 2.91 nM
- IC50 (hNav1.4): 1190 nM
- Nav1.4/Nav1.7 (hNav1.4): 411

SMILES: C#CC[C@H](NC(=O)[C@@H](N)CCC(=O)O)C(=O)N[C@H]1CSSC[C@@H]2NC(=O)[C@@H]3CSSC[C@@H](C(=O)N[C@@H](CCCNC(=N)N)C(=O)N[C@@H](CCCCN)C(=O)N[C@@H](CCC(=O)O)C(=O)N[C@H](C(N)=O)[C@@H](C)CC)NC(=O)[C@H](Cc4c[nH]c5ccccc45)NC(=O)[C@H](CC(C)C)NC(=O)[C@H](CCCCN)NC(=O)[C@H](CSSC[C@H](NC(=O)[C@H]([C@@H](C)O)NC(=O)[C@H](Cc4c[nH]c5ccccc45)NC(=O)[C@H](CCCC)NC(=O)[C@H](Cc4c[nH]c5ccccc45)NC(=O)[C@H](CCCCN)NC(=O)[C@H](CCC(N)=O)NC1=O)C(=O)N[C@@H](CC(=O)O)C(=O)N[C@@H](CCC(=O)O)C(=O)N[C@@H](CCCCN)C(=O)N[C@@H](CCCNC(=N)N)C(=O)N[C@@H](C)C(=O)N3)NC(=O)[C@H](CCCNC(=N)N)NC(=O)[C@H](CC(C)C)NC(=O)CNC(=O)[C@H](CCC(=O)O)NC2=O [compound 736]
- Nav1.6/Nav1.7 (hNav1.6): 1730
- IC50 (hNav1.6): 2520 nM
- IC50 (hNav1.7; [1]): 1.46 nM
- IC50 (hNav1.4): 547 nM
- Nav1.4/Nav1.7 (hNav1.4): 375
